Source: patent publication US20230085307A1, “PYRIDAZINONE COMPOUND AND HERBICIDE” (NISSAN CHEMICAL CORPORATION, priority 2019, published 2023)

Experiments:
barnyard grass [1] = experiment: Test Example 3: herbicidal effect by foliage application, Wagner pot (Table 18, symbol H); assay type: in vivo, barnyard grass (Echinochloa crus-galli); conditions: 320 g/ha
Procedure, shortened: (§1)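 Plants were sown in alluvial soil held under 0.1–0.5 cm standing water and grown 14 days in a greenhouse at 25–30 °C. An emulsifiable formulation, water-diluted to the set dose, was then sprayed onto the foliage, and effects were scored three weeks later using previously defined criteria.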

Chinese sprangletop = experiment: Test Example 3: herbicidal effect by foliage application, Wagner pot (Table 18, symbol D); assay type: in vivo, chinese sprangletop (Leptochloa chinensis); conditions: 320 g/ha
Procedure, shortened: as §1

rice flat sedge = experiment: Test Example 3: herbicidal effect by foliage application, Wagner pot (Table 18, symbol E); assay type: in vivo, rice flat sedge (Cyperus iria); conditions: 320 g/ha
Procedure, shortened: as §1

southern crabgrass [2] = experiment: Test Example 4: herbicidal effect by soil treatment (Table 19, symbol F); assay type: in vivo, southern crabgrass (Digitaria ciliaris); conditions: AAH 320 g/ha
Procedure, shortened: (§2)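 Emulsion of test compound, water-diluted to predetermined amount, sprayed on soil after sowing (seed depth ~1.5 cm, sterilized diluvial soil). Greenhouse, 25–30° C. Effect graded at three weeks post-spray.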

green foxtail [3] = experiment: Test Example 4: herbicidal effect by soil treatment (Table 19, symbol G); assay type: in vivo, green foxtail (Setaria viridis); conditions: AAH 320 g/ha
Procedure, shortened: as §2

barnyard grass [4] = experiment: Test Example 4: herbicidal effect by soil treatment (Table 19, symbol H); assay type: in vivo, barnyard grass (Echinochloa crus-galli); conditions: AAH 320 g/ha
Procedure, shortened: as §2

wild oat [5] = experiment: Test Example 4: herbicidal effect by soil treatment (Table 19, symbol I); assay type: in vivo, wild oat (Avena fatua); conditions: AAH 320 g/ha
Procedure, shortened: as §2

blackgrass [6] = experiment: Test Example 4: herbicidal effect by soil treatment (Table 19, symbol J); assay type: in vivo, blackgrass (Alopecurus myosuroides); conditions: AAH 320 g/ha
Procedure, shortened: as §2

Italian ryegrass [7] = experiment: Test Example 4: herbicidal effect by soil treatment (Table 19, symbol K); assay type: in vivo, Italian ryegrass (Lolium multiflorum); conditions: AAH 320 g/ha
Procedure, shortened: as §2

windgrass [8] = experiment: Test Example 4: herbicidal effect by soil treatment (Table 19, symbol L); assay type: in vivo, windgrass (Apera spica-venti); conditions: AAH 320 g/ha
Procedure, shortened: as §2

velvetleaf [9] = experiment: Test Example 4: herbicidal effect by soil treatment (Table 19, symbol M); assay type: in vivo, velvetleaf (Abutilon theophrasti); conditions: AAH 320 g/ha
Procedure, shortened: as §2

redroot pigweed [10] = experiment: Test Example 4: herbicidal effect by soil treatment (Table 19, symbol N); assay type: in vivo, redroot pigweed (Amaranthus retroflexus); conditions: AAH 320 g/ha
Procedure, shortened: as §2

lambsquarters [11] = experiment: Test Example 4: herbicidal effect by soil treatment (Table 19, symbol O); assay type: in vivo, lambsquarters (Chenopodium album); conditions: AAH 320 g/ha
Procedure, shortened: as §2

chickweed [12] = experiment: Test Example 4: herbicidal effect by soil treatment (Table 19, symbol P); assay type: in vivo, common chickweed (Stellaria media); conditions: AAH 320 g/ha
Procedure, shortened: as §2

false cleavers = experiment: Test Example 4: herbicidal effect by soil treatment (Table 19, symbol Q); assay type: in vivo, false cleavers (Galium spurium); conditions: AAH 320 g/ha
Procedure, shortened: as §2

persian speedwell [13] = experiment: Test Example 4: herbicidal effect by soil treatment (Table 19, symbol R); assay type: in vivo, Persian speedwell (Veronica persica); conditions: AAH 320 g/ha
Procedure, shortened: as §2

southern crabgrass [14] = experiment: Test Example 5: herbicidal effect by foliage application, plastic box (Table 20, symbol F); assay type: in vivo, southern crabgrass (Digitaria ciliaris); conditions: foliage application, AAH 320 g/ha, three weeks after application
Procedure, shortened: (§3)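 Post-emergence foliar test in sterilized diluvial soil. Compound applied as water-diluted emulsion at a predetermined rate to 14-day-old plants; evaluation at three weeks.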

green foxtail [15] = experiment: Test Example 5: herbicidal effect by foliage application, plastic box (Table 20, symbol G); assay type: in vivo, green foxtail (Setaria viridis); conditions: foliage application, AAH 320 g/ha, three weeks after application
Procedure, shortened: as §3

barnyard grass [16] = experiment: Test Example 5: herbicidal effect by foliage application, plastic box (Table 20, symbol H); assay type: in vivo, barnyard grass (Echinochloa crus-galli); conditions: foliage application, AAH 320 g/ha, three weeks after application
Procedure, shortened: as §3

wild oat [17] = experiment: Test Example 5: herbicidal effect by foliage application, plastic box (Table 20, symbol I); assay type: in vivo, wild oat (Avena fatua); conditions: foliage application, AAH 320 g/ha, three weeks after application
Procedure, shortened: as §3

blackgrass [18] = experiment: Test Example 5: herbicidal effect by foliage application, plastic box (Table 20, symbol J); assay type: in vivo, blackgrass (Alopecurus myosuroides); conditions: foliage application, AAH 320 g/ha, three weeks after application
Procedure, shortened: as §3

Italian ryegrass [19] = experiment: Test Example 5: herbicidal effect by foliage application, plastic box (Table 20, symbol K); assay type: in vivo, Italian ryegrass (Lolium multiflorum); conditions: foliage application, AAH 320 g/ha, three weeks after application
Procedure, shortened: as §3

windgrass [20] = experiment: Test Example 5: herbicidal effect by foliage application, plastic box (Table 20, symbol L); assay type: in vivo, windgrass (Apera spica-venti); conditions: foliage application, AAH 320 g/ha, three weeks after application
Procedure, shortened: as §3

velvetleaf [21] = experiment: Test Example 5: herbicidal effect by foliage application, plastic box (Table 20, symbol M); assay type: in vivo, velvetleaf (Abutilon theophrasti); conditions: foliage application, AAH 320 g/ha, three weeks after application
Procedure, shortened: as §3

redroot pigweed [22] = experiment: Test Example 5: herbicidal effect by foliage application, plastic box (Table 20, symbol N); assay type: in vivo, redroot pigweed (Amaranthus retroflexus); conditions: foliage application, AAH 320 g/ha, three weeks after application
Procedure, shortened: as §3

lambsquarters [23] = experiment: Test Example 5: herbicidal effect by foliage application, plastic box (Table 20, symbol O); assay type: in vivo, lambsquarters (Chenopodium album); conditions: foliage application, AAH 320 g/ha, three weeks after application
Procedure, shortened: as §3

chickweed [24] = experiment: Test Example 5: herbicidal effect by foliage application, plastic box (Table 20, symbol P); assay type: in vivo, common chickweed (Stellaria media); conditions: foliage application, AAH 320 g/ha, three weeks after application
Procedure, shortened: as §3

persian speedwell [25] = experiment: Test Example 5: herbicidal effect by foliage application, plastic box (Table 20, symbol R); assay type: in vivo, Persian speedwell (Veronica persica); conditions: foliage application, AAH 320 g/ha, three weeks after application
Procedure, shortened: as §3

CCCC(=O)Oc1c(OC)nn(C)c(=O)c1-c1c(-c2ccc(F)c(C)c2)sc2ccccc12 [1-175]
herbicidal effect on H (barnyard grass), rating 0-5 (barnyard grass [1]): 0 (Herbicidal rate of 5% or less (almost no effect))
herbicidal effect on D (Chinese sprangletop), rating 0-5 (Chinese sprangletop): 0 (Herbicidal rate of 5% or less (almost no effect))
herbicidal effect on E (rice flat sedge), rating 0-5 (rice flat sedge): 3 (Herbicidal rate of 40% or more and less than 70%)
F: southern crabgrass, herbicidal effect rating (southern crabgrass [2]): 0 (Herbicidal rate of 5% or less (almost no effect))
G: green foxtail, herbicidal effect rating (green foxtail [3]): 1 (Herbicidal rate of 5% or more and less than 20%)
H: barnyard grass, herbicidal effect rating (barnyard grass [4]): 0 (Herbicidal rate of 5% or less (almost no effect))
I: wild oat, herbicidal effect rating (wild oat [5]): 0 (Herbicidal rate of 5% or less (almost no effect))
J: blackgrass, herbicidal effect rating (blackgrass [6]): 0 (Herbicidal rate of 5% or less (almost no effect))
K: Italian ryegrass, herbicidal effect rating (Italian ryegrass [7]): 2 (Herbicidal rate of 20% or more and less than 40%)
L: windgrass, herbicidal effect rating (windgrass [8]): 1 (Herbicidal rate of 5% or more and less than 20%)
M: velvetleaf, herbicidal effect rating (velvetleaf [9]): 3 (Herbicidal rate of 40% or more and less than 70%)
N: redroot pigweed, herbicidal effect rating (redroot pigweed [10]): 4 (Herbicidal rate of 70% or more and less than 90%)
O: lambsquarters, herbicidal effect rating (lambsquarters [11]): 4 (Herbicidal rate of 70% or more and less than 90%)
P: chickweed, herbicidal effect rating (chickweed [12]): 0 (Herbicidal rate of 5% or less (almost no effect))
Q: false cleavers, herbicidal effect rating (false cleavers): 0 (Herbicidal rate of 5% or less (almost no effect))
R: persian speedwell, herbicidal effect rating (persian speedwell [13]): 0 (Herbicidal rate of 5% or less (almost no effect))
F: southern crabgrass, herbicidal effect (southern crabgrass [14]): 0 (Herbicidal rate of 5% or less (almost no effect))
G: green foxtail, herbicidal effect (green foxtail [15]): 0 (Herbicidal rate of 5% or less (almost no effect))
H: barnyard grass, herbicidal effect (barnyard grass [16]): 0 (Herbicidal rate of 5% or less (almost no effect))
I: wild oat, herbicidal effect (wild oat [17]): 0 (Herbicidal rate of 5% or less (almost no effect))
J: blackgrass, herbicidal effect (blackgrass [18]): 0 (Herbicidal rate of 5% or less (almost no effect))
K: Italian ryegrass, herbicidal effect (Italian ryegrass [19]): 0 (Herbicidal rate of 5% or less (almost no effect))
L: windgrass, herbicidal effect (windgrass [20]): 0 (Herbicidal rate of 5% or less (almost no effect))
M: velvetleaf, herbicidal effect (velvetleaf [21]): 3 (Herbicidal rate of 40% or more and less than 70%)
N: redroot pigweed, herbicidal effect (redroot pigweed [22]): 0 (Herbicidal rate of 5% or less (almost no effect))
O: lambsquarters, herbicidal effect (lambsquarters [23]): 0 (Herbicidal rate of 5% or less (almost no effect))
P: chickweed, herbicidal effect (chickweed [24]): 5 (Herbicidal rate of 90% or more (almost completely withered))
R: persian speedwell, herbicidal effect (persian speedwell [25]): 4 (Herbicidal rate of 70% or more and less than 90%)
